# Article PMC11593623, “D299T Mutation in CYP76F14 Led to a Decrease in Wine Bouquet Precursor Production in Wine Grape” (Genes, 2024)
# Biological target: T1, 'L35' VvCYP76F14 (Vitis vinifera, UniProt A0A1B2ZBX8, S46N/I107T/K111N/Q175R/V222L/N286S/T325K/G378E/A380T/D383E/A386T)
# T1 construct: 499-residue CDS, synthesized (GenScript), E. coli BL21(DE3); purification and tags not described; Arabidopsis CPR ATR1 as redox partner
# Assay: substrate remnant by UPLC-MS
# Type: cell-based
# Conditions: Arabidopsis CPR ATR1 as redox partner; 26 °C, 1 h; recombinant E. coli protein, purification not described
# T1 sequence (A0A1B2ZBX8 entry or part of it with the stated changes): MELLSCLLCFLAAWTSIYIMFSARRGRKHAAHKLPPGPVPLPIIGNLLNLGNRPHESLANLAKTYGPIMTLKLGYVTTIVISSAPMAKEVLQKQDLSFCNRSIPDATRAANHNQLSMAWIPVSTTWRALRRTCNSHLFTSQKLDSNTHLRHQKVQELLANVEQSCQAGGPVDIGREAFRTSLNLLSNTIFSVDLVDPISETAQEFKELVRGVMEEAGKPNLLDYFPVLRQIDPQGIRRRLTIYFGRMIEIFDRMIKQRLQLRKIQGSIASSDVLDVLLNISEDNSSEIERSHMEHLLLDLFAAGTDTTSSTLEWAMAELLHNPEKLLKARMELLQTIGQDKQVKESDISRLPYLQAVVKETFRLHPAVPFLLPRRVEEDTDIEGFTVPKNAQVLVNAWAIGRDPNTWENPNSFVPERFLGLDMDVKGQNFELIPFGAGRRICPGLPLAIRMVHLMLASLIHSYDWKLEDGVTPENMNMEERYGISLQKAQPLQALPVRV
row,Structure (SMILES),substrate remnant by UPLC-MS
1,C=CC(C)(O)CC/C=C(\C)CO (centres unmarked) [(E)-8-hydroxylinalool],‘L35’ VvCYP76F14 exhibited lower remnants of linalool and (E)-8-hydroxylinalool substrates
2,C=CC(C)(O)CCC=C(C)C (centres unmarked) [linalool],‘L35’ VvCYP76F14 exhibited lower remnants of linalool and (E)-8-hydroxylinalool substrates
